Data: PubChem BioAssay AID248 (DTP/NCI, 2004)
Toxic doses and inconclusive results are not listed. Rule as the data show it: active = T/C of 150% or more; inactive = T/C below 125%.

Test system: L1210 leukemia ip in BDF1 mice, survival T/C
Assay: NCI In Vivo Anticancer Drug Screen. Data for tumor model L1210 Leukemia (intraperitoneal) in B6D2F1 (BDF1) mice
Conditions: endpoint: mean survival time, higher = longer survival
In short: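 Mice bearing the transplanted tumor received compound or vehicle. Survival of the treated group was divided by that of the vehicle-treated control group to give the ratio.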

[1] = dose: 100.0 mg/kg/injection, schedule: Q01DX001 (ip), vehicle: saline
[2] = dose: 200.0 mg/kg/injection, schedule: Q01DX001 (ip), vehicle: saline
[3] = dose: 400.0 mg/kg/injection, schedule: Q01DX001 (ip), vehicle: saline
[4] = dose: 100.0 mg/kg/injection, schedule: Q04DX002 (ip), vehicle: saline with Tween-80
[5] = dose: 100.0 mg/kg/injection, schedule: Q01DX009 (ip), vehicle: Klucel (hydroxypropylcellulose) (HPC)
[6] = dose: 200.0 mg/kg/injection, schedule: Q01DX009 (ip), vehicle: Klucel (hydroxypropylcellulose) (HPC)
[7] = dose: 400.0 mg/kg/injection, schedule: Q01DX009 (ip), vehicle: Klucel (hydroxypropylcellulose) (HPC)
[8] = dose: 100.0 mg/kg/injection, schedule: Q01DX009 (ip), vehicle: saline with Tween-80
[9] = dose: 100.0 mg/kg/injection, schedule: Q04DX003 (ip), vehicle: saline with Tween-80
[10] = dose: 200.0 mg/kg/injection, schedule: Q01DX009 (ip), vehicle: saline with Tween-80
[11] = dose: 200.0 mg/kg/injection, schedule: Q04DX003 (ip), vehicle: saline with Tween-80
[12] = dose: 400.0 mg/kg/injection, schedule: Q01DX009 (ip), vehicle: saline with Tween-80
[13] = dose: 400.0 mg/kg/injection, schedule: Q04DX003 (ip), vehicle: saline with Tween-80
[14] = dose: 100.0 mg/kg/injection, schedule: Q04DX003 (ip), vehicle: saline
[15] = dose: 200.0 mg/kg/injection, schedule: Q01DX009 (ip), vehicle: saline
[16] = dose: 200.0 mg/kg/injection, schedule: Q04DX003 (ip), vehicle: saline
[17] = dose: 100.0 mg/kg/injection, schedule: Q04DX003 (ip), vehicle: gum acacia
[18] = dose: 200.0 mg/kg/injection, schedule: Q04DX003 (ip), vehicle: gum acacia
[19] = dose: 400.0 mg/kg/injection, schedule: Q04DX003 (ip), vehicle: gum acacia
[20] = dose: 100.0 mg/kg/injection, schedule: Q04DX003 (ip), vehicle: Klucel (hydroxypropylcellulose) (HPC)
[21] = dose: 200.0 mg/kg/injection, schedule: Q04DX003 (ip), vehicle: Klucel (hydroxypropylcellulose) (HPC)
[22] = dose: 400.0 mg/kg/injection, schedule: Q04DX003 (ip), vehicle: Klucel (hydroxypropylcellulose) (HPC)

Measured: T/C

CN(C)Cc1c(Cl)cccc1C(O)c1ccccc1 (centres undefined)
inactive: dose: 50.0 mg/kg/injection, schedule: Q01DX001 (ip), vehicle: saline 96 % of control | [1] 106 % of control | [2] 106 % of control | [3] 95 % of control

CCCC(C=O)(CCN1CCCC1)c1cccc2ccccc12 (centres undefined)
inactive: dose: 25.0 mg/kg/injection, schedule: Q04DX002 (ip), vehicle: saline with Tween-80 100 % of control | dose: 50.0 mg/kg/injection, schedule: Q04DX002 (ip), vehicle: saline with Tween-80 94 % of control | [4] 88 % of control

CCCC(=O)c1c(C)cc(C)cc1C
inactive: [5] 97 % of control | [6] 108 % of control | [7] 97 % of control

O=P(O)(O)OCC(O)CF (centres undefined)
inactive: dose: 2.5 mg/kg/injection, schedule: Q01DX009 (ip), vehicle: saline 89 % of control | dose: 5.0 mg/kg/injection, schedule: Q01DX009 (ip), vehicle: saline 93 % of control | dose: 10.0 mg/kg/injection, schedule: Q01DX009 (ip), vehicle: saline 94 % of control | dose: 44.0 mg/kg/injection, schedule: Q04DX003 (ip), vehicle: saline 109 % of control | dose: 88.0 mg/kg/injection, schedule: Q04DX003 (ip), vehicle: saline 100 % of control | dose: 115.5 mg/kg/injection, schedule: Q04DX003 (ip), vehicle: saline 96 % of control | dose: 175.0 mg/kg/injection, schedule: Q04DX003 (ip), vehicle: saline 92 % of control

CC1=C2C(=C(CBr)OS1(=O)=O)C(=O)c1ccccc12
inactive: [8] 92 % of control | [9] 96 % of control | [10] 92 % of control | [11] 103 % of control | [12] 95 % of control | [13] 94 % of control

COC(=O)c1cc(Cl)cc(C(=O)OC)n1
inactive: [14] 100 % of control | [15] 94 % of control | [16] 103 % of control | dose: 400.0 mg/kg/injection, schedule: Q01DX009 (ip), vehicle: saline 100 % of control | dose: 400.0 mg/kg/injection, schedule: Q04DX003 (ip), vehicle: saline 99 % of control

O=C(O)COc1cc(Cl)c(Cl)cc1Cl
inactive: dose: 50.0 mg/kg/injection, schedule: Q01DX001 (ip), vehicle: carboxymethylcellulose (CMC) 102 % of control | dose: 100.0 mg/kg/injection, schedule: Q01DX001 (ip), vehicle: carboxymethylcellulose (CMC) 106 % of control | [9] 100 % of control | dose: 200.0 mg/kg/injection, schedule: Q01DX001 (ip), vehicle: carboxymethylcellulose (CMC) 112 % of control | [11] 103 % of control | dose: 400.0 mg/kg/injection, schedule: Q01DX001 (ip), vehicle: carboxymethylcellulose (CMC) 108 % of control | [13] 100 % of control

Cc1c(N=Cc2ccccc2)c(=O)n(-c2ccccc2)n1C
inactive: dose: 100.0 mg/kg/injection, schedule: Q01DX009 (ip), vehicle: gum acacia 104 % of control | [17] 100 % of control | [18] 95 % of control | dose: 400.0 mg/kg/injection, schedule: Q01DX009 (ip), vehicle: gum acacia 88 % of control | [19] 95 % of control

Cc1cc(C2=CCCCC2)c2ccccc2c1C
inactive: dose: 100.0 mg/kg/injection, schedule: Q01DX001 (ip), vehicle: Klucel (hydroxypropylcellulose) (HPC) 95 % of control | dose: 200.0 mg/kg/injection, schedule: Q01DX001 (ip), vehicle: Klucel (hydroxypropylcellulose) (HPC) 103 % of control | dose: 400.0 mg/kg/injection, schedule: Q01DX001 (ip), vehicle: Klucel (hydroxypropylcellulose) (HPC) 95 % of control

CC(C(c1ccccc1)c1ccc(Cl)cc1)[N+](=O)[O-] (centres undefined)
inactive: dose: 22.0 mg/kg/injection, schedule: Q01DX009 (ip), vehicle: saline with Tween-80 102 % of control | dose: 33.0 mg/kg/injection, schedule: Q01DX009 (ip), vehicle: saline with Tween-80 96 % of control | dose: 50.0 mg/kg/injection, schedule: Q01DX009 (ip), vehicle: saline with Tween-80 94 % of control | dose: 75.0 mg/kg/injection, schedule: Q01DX009 (ip), vehicle: saline with Tween-80 112 % of control | [1] 87 % of control | [8] 103 % of control | [9] 95 % of control | [14] 102 % of control | [2] 95 % of control | [11] 102 % of control | [16] 89 % of control | [3] 88 % of control

O=C(CCN1CC=C(c2ccccc2)CC1)NCc1ccccc1
inactive: [8] 95 % of control | [9] 98 % of control | [10] 93 % of control | [11] 100 % of control | [12] 95 % of control | [13] 100 % of control

CC(=O)C(C(c1ccccc1)N1CCCc2ccccc21)N1CCOCC1 (centres undefined)
inactive: [5] 96 % of control | [6] 91 % of control | [7] 98 % of control

CC(=O)Oc1ccc(N(CCO)CCO)cc1OC(C)=O
inactive: dose: 1.17 mg/kg/injection, schedule: Q01DX001 (ip), vehicle: water 103 % of control | dose: 2.34 mg/kg/injection, schedule: Q01DX001 (ip), vehicle: water 97 % of control | dose: 4.68 mg/kg/injection, schedule: Q01DX001 (ip), vehicle: water 100 % of control

CCCCOP(=O)(/C=C/c1ccccc1)OCCCC
inactive: [4] 122 % of control | dose: 200.0 mg/kg/injection, schedule: Q04DX002 (ip), vehicle: saline with Tween-80 91 % of control

O=C(O)c1ccccc1-c1ccccc1C(=O)Nc1ccc2c(c1)Cc1cc(F)ccc1-2
inactive: dose: 75.0 mg/kg/injection, schedule: Q01DX001 (ip), vehicle: carboxymethylcellulose (CMC) 91 % of control | dose: 150.0 mg/kg/injection, schedule: Q01DX001 (ip), vehicle: carboxymethylcellulose (CMC) 98 % of control

O=C(OCCCl)Oc1c(Cl)cc([N+](=O)[O-])cc1[N+](=O)[O-]
inactive: [20] 101 % of control | [21] 101 % of control | [22] 86 % of control

CC(C)CCCC(C)CCO (centres undefined)
inactive: dose: 50.0 mg/kg/injection, schedule: Q01DX009 (ip), vehicle: saline 97 % of control | dose: 100.0 mg/kg/injection, schedule: Q01DX009 (ip), vehicle: saline 105 % of control | [15] 103 % of control

CC(C)CCOC(=O)C(O)c1ccccc1 (centres undefined)
inactive: [5] 98 % of control | [20] 100 % of control | [6] 92 % of control | [21] 88 % of control | [7] 95 % of control | [22] 91 % of control

CCOc1ccc(C2(C)OC(=O)C3CCCCC32)c2ccccc12 (centres undefined)
inactive: [17] 100 % of control | [18] 95 % of control | [19] 90 % of control

O=C(O)CC1CCCCC1NC(=O)c1ccccc1 (centres undefined)
inactive: dose: 100.0 mg/kg/injection, schedule: Q01DX001 (ip), vehicle: saline with Tween-80 100 % of control | dose: 200.0 mg/kg/injection, schedule: Q01DX001 (ip), vehicle: saline with Tween-80 94 % of control | dose: 400.0 mg/kg/injection, schedule: Q01DX001 (ip), vehicle: saline with Tween-80 95 % of control
